Laboratory results from PubChem BioAssay (NCI).
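Interpolation was linear, between the two tested concentrations surrounding the appropriate level; five concentrations were tested over 48 hours in 96-well plates. The concentration for 50% growth inhibition is given as GI50. TGI is the concentration that stops growth completely.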

Columns and labels:
Assay in all cases: growth of human tumour cells (NCI), 48 h
MALME-3M melanoma = test system: MALME-3M melanoma
HCT-116 colon = test system: HCT-116 colon
OVCAR-4 ovarian = test system: OVCAR-4 ovarian
OVCAR-8 ovarian = test system: OVCAR-8 ovarian
PC-3 prostate = test system: PC-3 prostate
NCI-H460 lung = test system: NCI-H460 lung
HOP-62 NSCLC = test system: HOP-62 NSCLC
A549 NSCLC = test system: A549 NSCLC
TK-10 renal = test system: TK-10 renal
EKVX NSCLC = test system: EKVX NSCLC
HS 578T breast = test system: HS 578T breast
SF-295 CNS = test system: SF-295 CNS
SK-MEL-2 melanoma = test system: SK-MEL-2 melanoma
SK-MEL-28 melanoma = test system: SK-MEL-28 melanoma
HCC-2998 colon = test system: HCC-2998 colon
MDA-MB-231 breast = test system: MDA-MB-231 breast
SF-268 CNS = test system: SF-268 CNS
RPMI-8226 leukemia = test system: RPMI-8226 leukemia
786-0 renal = test system: 786-0 renal
OVCAR-5 ovarian = test system: OVCAR-5 ovarian
NCI/ADR-RES ovarian = test system: NCI/ADR-RES ovarian
NCI-H23 lung = test system: NCI-H23 lung
UACC-257 melanoma = test system: UACC-257 melanoma
MDA-MB-435 = test system: MDA-MB-435
HT29 colon = test system: HT29 colon
M14 melanoma = test system: M14 melanoma
CCRF-CEM leukemia = test system: CCRF-CEM leukemia
UACC-62 melanoma = test system: UACC-62 melanoma
OVCAR-3 ovarian = test system: OVCAR-3 ovarian
SN12C renal = test system: SN12C renal
MCF7 breast = test system: MCF7 breast
LOX IMVI melanoma = test system: LOX IMVI melanoma
COLO 205 colon = test system: COLO 205 colon
SNB-19 CNS = test system: SNB-19 CNS
SW-620 colon = test system: SW-620 colon
HOP-92 NSCLC = test system: HOP-92 NSCLC
DU-145 prostate = test system: DU-145 prostate
ACHN renal = test system: ACHN renal
A498 renal = test system: A498 renal
RXF 393 renal = test system: RXF 393 renal
MOLT-4 leukemia = test system: MOLT-4 leukemia
SK-OV-3 ovarian = test system: SK-OV-3 ovarian
SNB-75 CNS = test system: SNB-75 CNS
UO-31 renal = test system: UO-31 renal
BT-549 breast = test system: BT-549 breast
K-562 leukemia = test system: K-562 leukemia
NCI-H226 lung = test system: NCI-H226 lung
KM12 colon = test system: KM12 colon
SF-539 CNS = test system: SF-539 CNS
IGROV1 ovarian = test system: IGROV1 ovarian
HCT-15 colon = test system: HCT-15 colon
T-47D breast = test system: T-47D breast
SK-MEL-5 melanoma = test system: SK-MEL-5 melanoma
U251 CNS = test system: U251 CNS
MDA-MB-468 breast = test system: MDA-MB-468 breast
NCI-H522 lung = test system: NCI-H522 lung
SR leukemia = test system: SR leukemia
CAKI-1 renal = test system: CAKI-1 renal

SMILES: Fc1ccc(F)c(CNc2nc(SCCN3CCOCC3)nc3c2cnn3CC(Cl)c2ccc(Br)cc2)c1 (stereo unspecified)
- GI50 (MALME-3M melanoma): 1.89 µM
- TGI (MALME-3M melanoma): 5.15 µM
- GI50 (HCT-116 colon): 2.61 µM
- TGI (HCT-116 colon): > 100 µM
- GI50 (OVCAR-4 ovarian): 3.22 µM
- TGI (OVCAR-4 ovarian): > 100 µM
- GI50 (OVCAR-8 ovarian): 3.77 µM
- TGI (OVCAR-8 ovarian): > 100 µM
- GI50 (PC-3 prostate): 2.63 µM
- TGI (PC-3 prostate): 62.6 µM
- GI50 (NCI-H460 lung): 3.52 µM
- TGI (NCI-H460 lung): > 100 µM
- GI50 (HOP-62 NSCLC): 6.31 µM
- TGI (HOP-62 NSCLC): > 100 µM
- GI50 (A549 NSCLC): 3.09 µM
- TGI (A549 NSCLC): > 100 µM
- GI50 (TK-10 renal): 5.24 µM
- TGI (TK-10 renal): > 100 µM
- GI50 (EKVX NSCLC): 3.9 µM
- TGI (EKVX NSCLC): > 100 µM
- GI50 (HS 578T breast): 2.6 µM
- TGI (HS 578T breast): > 100 µM
- GI50 (SF-295 CNS): 3.34 µM
- TGI (SF-295 CNS): > 100 µM
- GI50 (SK-MEL-2 melanoma): 2.04 µM
- TGI (SK-MEL-2 melanoma): 5.04 µM
- GI50 (SK-MEL-28 melanoma): 2.84 µM
- TGI (SK-MEL-28 melanoma): > 100 µM
- GI50 (HCC-2998 colon): 4.13 µM
- TGI (HCC-2998 colon): > 100 µM
- GI50 (MDA-MB-231 breast): 3.11 µM
- TGI (MDA-MB-231 breast): 18.6 µM
- GI50 (SF-268 CNS): 4.27 µM
- TGI (SF-268 CNS): > 100 µM
- GI50 (RPMI-8226 leukemia): 2.66 µM
- TGI (RPMI-8226 leukemia): > 100 µM
- GI50 (786-0 renal): 2.62 µM
- TGI (786-0 renal): 17.3 µM
- GI50 (OVCAR-5 ovarian): 4.59 µM
- TGI (OVCAR-5 ovarian): > 100 µM
- GI50 (NCI/ADR-RES ovarian): 3.13 µM
- TGI (NCI/ADR-RES ovarian): > 100 µM
- GI50 (NCI-H23 lung): 4.91 µM
- TGI (NCI-H23 lung): > 100 µM
- GI50 (UACC-257 melanoma): 3.25 µM
- TGI (UACC-257 melanoma): 65 µM
- GI50 (MDA-MB-435): 2.91 µM
- TGI (MDA-MB-435): 10.4 µM
- GI50 (HT29 colon): 1.14 µM
- TGI (HT29 colon): 2.68 µM
- GI50 (M14 melanoma): 3.21 µM
- TGI (M14 melanoma): > 100 µM
- GI50 (CCRF-CEM leukemia): 2.81 µM
- TGI (CCRF-CEM leukemia): > 100 µM
- GI50 (UACC-62 melanoma): 1.75 µM
- TGI (UACC-62 melanoma): 3.73 µM
- GI50 (OVCAR-3 ovarian): 5.71 µM
- TGI (OVCAR-3 ovarian): > 100 µM
- GI50 (SN12C renal): 3.22 µM
- TGI (SN12C renal): > 100 µM
- GI50 (MCF7 breast): 2.5 µM
- TGI (MCF7 breast): 8.54 µM
- GI50 (LOX IMVI melanoma): 2.5 µM
- TGI (LOX IMVI melanoma): 7.65 µM
- GI50 (COLO 205 colon): 2.13 µM
- TGI (COLO 205 colon): 4.98 µM
- GI50 (SNB-19 CNS): 5.34 µM
- TGI (SNB-19 CNS): > 100 µM
- GI50 (SW-620 colon): 2.78 µM
- TGI (SW-620 colon): 13.8 µM
- GI50 (HOP-92 NSCLC): 3.03 µM
- TGI (HOP-92 NSCLC): 23.9 µM
- GI50 (DU-145 prostate): 6.12 µM
- TGI (DU-145 prostate): > 100 µM
- GI50 (ACHN renal): 3.65 µM
- TGI (ACHN renal): > 100 µM
- GI50 (A498 renal): 4.2 µM
- TGI (A498 renal): > 100 µM
- GI50 (RXF 393 renal): 1.41 µM
- TGI (RXF 393 renal): 4.83 µM
- GI50 (MOLT-4 leukemia): 2.58 µM
- TGI (MOLT-4 leukemia): > 100 µM
- GI50 (SK-OV-3 ovarian): 8.7 µM
- TGI (SK-OV-3 ovarian): > 100 µM
- GI50 (SNB-75 CNS): 2.28 µM
- TGI (SNB-75 CNS): > 100 µM
- GI50 (UO-31 renal): 2.87 µM
- TGI (UO-31 renal): > 100 µM
- GI50 (BT-549 breast): 2.38 µM
- TGI (BT-549 breast): 5.96 µM
- GI50 (K-562 leukemia): 1.77 µM
- TGI (K-562 leukemia): > 100 µM
- GI50 (NCI-H226 lung): 2.63 µM
- TGI (NCI-H226 lung): 8.3 µM
- GI50 (KM12 colon): 3.72 µM
- TGI (KM12 colon): > 100 µM
- GI50 (SF-539 CNS): 3.57 µM
- TGI (SF-539 CNS): > 100 µM
- GI50 (IGROV1 ovarian): 5.03 µM
- TGI (IGROV1 ovarian): > 100 µM
- GI50 (HCT-15 colon): 1.76 µM
- TGI (HCT-15 colon): 6.15 µM
- GI50 (T-47D breast): 2.81 µM
- TGI (T-47D breast): 38.1 µM
- GI50 (SK-MEL-5 melanoma): 1.62 µM
- TGI (SK-MEL-5 melanoma): 3.01 µM
- GI50 (U251 CNS): 3.77 µM
- TGI (U251 CNS): > 100 µM
- GI50 (MDA-MB-468 breast): 1.96 µM
- TGI (MDA-MB-468 breast): 4.88 µM
- GI50 (NCI-H522 lung): 3.51 µM
- TGI (NCI-H522 lung): 91.3 µM
- GI50 (SR leukemia): 3.63 µM
- TGI (SR leukemia): > 100 µM
- GI50 (CAKI-1 renal): 3.66 µM
- TGI (CAKI-1 renal): > 100 µM
